In the experiment the target is T1, AKT1 (Homo sapiens, UniProt P31749).
T1 construct: purchased Upstate 14-276
T1 sequence (P31749 whole entry): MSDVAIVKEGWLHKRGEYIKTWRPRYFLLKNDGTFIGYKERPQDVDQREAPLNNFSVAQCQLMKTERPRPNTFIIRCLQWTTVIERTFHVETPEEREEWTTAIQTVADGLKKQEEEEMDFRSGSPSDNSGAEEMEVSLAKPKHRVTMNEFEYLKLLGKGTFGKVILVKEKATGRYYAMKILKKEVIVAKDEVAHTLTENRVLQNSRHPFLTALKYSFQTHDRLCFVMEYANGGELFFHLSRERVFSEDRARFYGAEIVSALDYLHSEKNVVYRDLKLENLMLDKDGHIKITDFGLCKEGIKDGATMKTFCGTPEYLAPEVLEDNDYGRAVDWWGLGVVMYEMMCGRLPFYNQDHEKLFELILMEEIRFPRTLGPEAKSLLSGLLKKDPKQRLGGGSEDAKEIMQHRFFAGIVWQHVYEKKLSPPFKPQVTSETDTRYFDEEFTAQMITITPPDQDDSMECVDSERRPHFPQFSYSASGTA
The experiment in a line: HTS ATP-utilizing enzyme assay, off-chip mobility-shift (Caliper HTS 250). It counts as biochemical. As to conditions: kinase named = inhibitory activity/selectivity; test compound 10 μM; active = greater than three-sigma from mean. The method in brief:
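AKT1 activity was measured by off-chip mobility shift (Caliper HTS 250) as the ratio of peptide substrate to phosphorylated product. Test compound was at 10 μM, with 2.5 h incubation at 20–22° C. EDTA wells served as 100% control and DMSO wells as 0%. Hits were called at three-sigma limits.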
With `O=C(c1cccs1)N(CCCN1CCOCC1)c1nc(-c2ccc(N3CCOCC3)cc2)cs1` [N-(4-(4-morpholinophenyl)thiazol-2-yl)-N-(3-morpholinopropyl)thiophene-2-carboxamide], the Activity entry was “AKT1”.
Next, `O=C(c1cccs1)N(CCCN1CCOCC1)c1nc(-c2ccc(Cl)s2)cs1` [N-(4-(5-chlorothiophen-2-yl)thiazol-2-yl)-N-(3-morpholinopropyl)thiophene-2-carboxamide]: “AKT1”.
As for `COc1ccc2oc(-c3csc(N(CCCN4CCOCC4)C(=O)c4cccs4)n3)cc2c1` [N-(4-(5-methoxybenzofuran-2-yl)thiazol-2-yl)-N-(3-morpholinopropyl)thiophene-2-carboxamide], the Activity entry is “AKT1”.
Next, `Cc1c(-c2csc(N(CCCN3CCOCC3)C(=O)c3cccs3)n2)cnn1-c1ccccc1` [N-(4-(5-methyl-1-phenyl-1H-pyrazol-4-yl)thiazol-2-yl)-N-(3-morpholinopropyl)thiophene-2-carboxamide]: “AKT1”; `Cc1ccc(-c2csc(N(CCCN3CCOCC3)C(=O)c3cccs3)n2)s1` [N-(4-(5-methylthiophen-2-yl)thiazol-2-yl)-N-(3-morpholinopropyl)thiophene-2-carboxamide]: “AKT1”.
To `COc1ccc(-c2csc(N(CCCN3CCOCC3)C(=O)c3cccs3)n2)cn1` [N-(4-(6-methoxypyridin-3-yl)thiazol-2-yl)-N-(3-morpholinopropyl)thiophene-2-carboxamide] belongs “AKT1”; to `COc1cccc2cc(-c3csc(N(CCCN4CCOCC4)C(=O)c4cccs4)n3)oc12` [N-(4-(7-methoxybenzofuran-2-yl)thiazol-2-yl)-N-(3-morpholinopropyl)thiophene-2-carboxamide], “AKT1”.
To `O=C(c1cccs1)N(CCCN1CCOCC1)c1nc(-c2csc3ccccc23)cs1` [N-(4-(benzo[b]thiophen-3-yl)thiazol-2-yl)-N-(3-morpholinopropyl)thiophene-2-carboxamide] belongs “AKT1”; to `O=C(c1cccs1)N(CCCN1CCOCC1)c1nc(-c2ccc3c(c2)OCO3)cs1` [N-(4-(benzo[d][1,3]dioxol-5-yl)thiazol-2-yl)-N-(3-morpholinopropyl)thiophene-2-carboxamide], “AKT1”; to `O=C(c1cccs1)N(CCCN1CCOCC1)c1nc(-c2nc3ccccc3s2)cs1` [N-(4-(benzo[d]thiazol-2-yl)thiazol-2-yl)-N-(3-morpholinopropyl)thiophene-2-carboxamide], “AKT1”.
On to `Cn1cccc1C(=O)N(CCCN1CCCC1=O)c1nc(-c2cc3ccccc3o2)cs1` [N-(4-(benzofuran-2-yl)thiazol-2-yl)-1-methyl-N-(3-(2-oxopyrrolidin-1-yl)propyl)-1H-pyrrole-2-carboxamide], for which the Activity result is on record as “AKT1”.
`CC(CO)NC(=O)CCN(C(=O)c1cccs1)c1nc(-c2cc3ccccc3o2)cs1` (stereo not drawn) [N-(4-(benzofuran-2-yl)thiazol-2-yl)-N-(3-(1-hydroxypropan-2-ylamino)-3-oxopropyl)thiophene-2-carboxamide]: the Activity entry is listed as “AKT1”.
On to `O=C(CC1NC(=O)NC1=O)NCCCN(C(=O)c1cccs1)c1nc(-c2cc3ccccc3o2)cs1` (stereo not drawn) [N-(4-(benzofuran-2-yl)thiazol-2-yl)-N-(3-(2-(2,5-dioxoimidazolidin-4-yl)acetamido)propyl)thiophene-2-carboxamide], for which the Activity entry is given as “AKT1”.
For `O=C(c1cccs1)N(CCCN1CCCCC1CCO)c1nc(-c2cc3ccccc3o2)cs1` (stereo not drawn) [N-(4-(benzofuran-2-yl)thiazol-2-yl)-N-(3-(2-(2-hydroxyethyl)piperidin-1-yl)propyl)thiophene-2-carboxamide], the Activity entry is listed as “AKT1”.
Next, `CN(C)CCNC(=O)CCN(C(=O)c1cccs1)c1nc(-c2cc3ccccc3o2)cs1` [N-(4-(benzofuran-2-yl)thiazol-2-yl)-N-(3-(2-(dimethylamino)ethylamino)-3-oxopropyl)thiophene-2-carboxamide]: “AKT1”; `O=C(c1cccs1)N(CCCN1CCCCC1CO)c1nc(-c2cc3ccccc3o2)cs1` (stereo not drawn) [N-(4-(benzofuran-2-yl)thiazol-2-yl)-N-(3-(2-(hydroxymethyl)piperidin-1-yl)propyl)thiophene-2-carboxamide]: “AKT1”.
On to `O=C(c1cccs1)N(CCC(=O)N1CCCC1CO)c1nc(-c2cc3ccccc3o2)cs1` (stereo not drawn) [N-(4-(benzofuran-2-yl)thiazol-2-yl)-N-(3-(2-(hydroxymethyl)pyrrolidin-1-yl)-3-oxopropyl)thiophene-2-carboxamide], for which the Activity entry is “AKT1”.
As for `O=C(c1cccs1)N(CCCN1CCCC1CO)c1nc(-c2cc3ccccc3o2)cs1` (stereo not drawn) [N-(4-(benzofuran-2-yl)thiazol-2-yl)-N-(3-(2-(hydroxymethyl)pyrrolidin-1-yl)propyl)thiophene-2-carboxamide], the Activity result was “AKT1”.
Consider `O=C(c1cccs1)N(CCCN1CCCCC1CN1CCCC1)c1nc(-c2cc3ccccc3o2)cs1` (stereo not drawn) [N-(4-(benzofuran-2-yl)thiazol-2-yl)-N-(3-(2-(pyrrolidin-1-ylmethyl)piperidin-1-yl)propyl)thiophene-2-carboxamide], for which the Activity result was “AKT1”.
Take `O=C(CCN(C(=O)c1cccs1)c1nc(-c2cc3ccccc3o2)cs1)NCCO` [N-(4-(benzofuran-2-yl)thiazol-2-yl)-N-(3-(2-hydroxyethylamino)-3-oxopropyl)thiophene-2-carboxamide]: the Activity entry is recorded as “AKT1”.
To `COCCNC(=O)CCN(C(=O)c1cccs1)c1nc(-c2cc3ccccc3o2)cs1` [N-(4-(benzofuran-2-yl)thiazol-2-yl)-N-(3-(2-methoxyethylamino)-3-oxopropyl)thiophene-2-carboxamide] belongs “AKT1”; to `O=C(CN1CCOCC1)NCCCN(C(=O)c1cccs1)c1nc(-c2cc3ccccc3o2)cs1` [N-(4-(benzofuran-2-yl)thiazol-2-yl)-N-(3-(2-morpholinoacetamido)propyl)thiophene-2-carboxamide], “AKT1”.
Next, `O=C1CCCN1CCCN(C(=O)c1ccco1)c1nc(-c2cc3ccccc3o2)cs1` [N-(4-(benzofuran-2-yl)thiazol-2-yl)-N-(3-(2-oxopyrrolidin-1-yl)propyl)furan-2-carboxamide]: “AKT1”.
To `O=C1CCCN1CCCN(C(=O)c1cccs1)c1nc(-c2cc3ccccc3o2)cs1` [N-(4-(benzofuran-2-yl)thiazol-2-yl)-N-(3-(2-oxopyrrolidin-1-yl)propyl)thiophene-2-carboxamide] belongs “AKT1”; to `CCN(C(C)=O)C1CCN(CCCN(C(=O)c2cccs2)c2nc(-c3cc4ccccc4o3)cs2)C1` (stereo not drawn) [N-(4-(benzofuran-2-yl)thiazol-2-yl)-N-(3-(3-(N-ethylacetamido)pyrrolidin-1-yl)propyl)thiophene-2-carboxamide], “AKT1”.
In the case of `CC(=O)N(C)C1CCN(CCCN(C(=O)c2cccs2)c2nc(-c3cc4ccccc4o3)cs2)C1` (stereo not drawn) [N-(4-(benzofuran-2-yl)thiazol-2-yl)-N-(3-(3-(N-methylacetamido)pyrrolidin-1-yl)propyl)thiophene-2-carboxamide], the Activity entry was “AKT1”.
Next, `CCN(CC)C1CCN(CCCN(C(=O)c2cccs2)c2nc(-c3cc4ccccc4o3)cs2)C1` (stereo not drawn) [N-(4-(benzofuran-2-yl)thiazol-2-yl)-N-(3-(3-(diethylamino)pyrrolidin-1-yl)propyl)thiophene-2-carboxamide]: “AKT1”; `CN(C)C1CCN(C(=O)CCN(C(=O)c2cccs2)c2nc(-c3cc4ccccc4o3)cs2)C1` (stereo not drawn) [N-(4-(benzofuran-2-yl)thiazol-2-yl)-N-(3-(3-(dimethylamino)pyrrolidin-1-yl)-3-oxopropyl)thiophene-2-carboxamide]: “AKT1”; `CN(C)C1CCN(CCCN(C(=O)c2cccs2)c2nc(-c3cc4ccccc4o3)cs2)C1` (stereo not drawn) [N-(4-(benzofuran-2-yl)thiazol-2-yl)-N-(3-(3-(dimethylamino)pyrrolidin-1-yl)propyl)thiophene-2-carboxamide]: “AKT1”.
Consider `O=C(CCN(C(=O)c1cccs1)c1nc(-c2cc3ccccc3o2)cs1)N1CCCC(CO)C1` (stereo not drawn) [N-(4-(benzofuran-2-yl)thiazol-2-yl)-N-(3-(3-(hydroxymethyl)piperidin-1-yl)-3-oxopropyl)thiophene-2-carboxamide], for which the Activity result is listed as “AKT1”.
Next, `O=C(c1cccs1)N(CCCN1CCCC(CO)C1)c1nc(-c2cc3ccccc3o2)cs1` (stereo not drawn) [N-(4-(benzofuran-2-yl)thiazol-2-yl)-N-(3-(3-(hydroxymethyl)piperidin-1-yl)propyl)thiophene-2-carboxamide]: “AKT1”; `O=C(CCN1CCCCC1)NCCCN(C(=O)c1cccs1)c1nc(-c2cc3ccccc3o2)cs1` [N-(4-(benzofuran-2-yl)thiazol-2-yl)-N-(3-(3-(piperidin-1-yl)propanamido)propyl)thiophene-2-carboxamide]: “AKT1”; `CC(CO)(CO)C(=O)NCCCN(C(=O)c1cccs1)c1nc(-c2cc3ccccc3o2)cs1` [N-(4-(benzofuran-2-yl)thiazol-2-yl)-N-(3-(3-hydroxy-2-(hydroxymethyl)-2-methylpropanamido)propyl)thiophene-2-carboxamide]: “AKT1”.
For `O=C(CCN(C(=O)c1cccs1)c1nc(-c2cc3ccccc3o2)cs1)N1CCCC(O)C1` (stereo not drawn) [N-(4-(benzofuran-2-yl)thiazol-2-yl)-N-(3-(3-hydroxypiperidin-1-yl)-3-oxopropyl)thiophene-2-carboxamide], the Activity entry is reported as “AKT1”.
To `O=C(c1cccs1)N(CCCN1CCCC(O)C1)c1nc(-c2cc3ccccc3o2)cs1` (stereo not drawn) [N-(4-(benzofuran-2-yl)thiazol-2-yl)-N-(3-(3-hydroxypiperidin-1-yl)propyl)thiophene-2-carboxamide] belongs “AKT1”; to `O=C(CCN(C(=O)c1cccs1)c1nc(-c2cc3ccccc3o2)cs1)N1CCC(O)C1` (stereo not drawn) [N-(4-(benzofuran-2-yl)thiazol-2-yl)-N-(3-(3-hydroxypyrrolidin-1-yl)-3-oxopropyl)thiophene-2-carboxamide], “AKT1”.

The record behind these values is patent publication US7795290B2 (Genentech, Inc., priority 2004, dated 2010).
